Assay results published in patent US20090314217A1, “APPARATUS AND METHOD FOR TREATING NON-HUMAN MAMMALS” (Under The Boardwalk Properties 8 (Proprietary) Limited, priority 2006, published 2009).

Assay: Blood tests on the horses on the days of the race (Table 1)
Format: in vivo, horse
Settings: for PCT: day 1 value 0.04; for RBC = red blood cell count: day 1 value 10.2; for WBC = white blood cell count: day 1 value 12.8; for RDWc: day 1 value 22.5; for PDW: day 1 value 32.6; for TBIL = total biliruben: day 1 value 37; for TP = total protein: day 1 value 79; for PLT = platelets: day 1 value 83
Method: The apparatus 10 was used in a confidential trial to treat five horses taking part in an endurance race. The five horses were called Moniq, Shamon, Pauli, Viola and Ophelia. During treatment, the average temperature inside the enclosure 22 was between 42° C. and 45° C. and an oxygen flow rate of 1 l/min was supplied to the ozonator 52. During treatment, the average heart-rate for the non-accustomed horses was 42 beats per minute. The superficial skin temperature measured on the neck and the point of the shoulder of the horses was 39° C. in each case.
Table 1 provides information on the blood tests conducted on the five horses, on the days of the race as indicated.

[1] = horse Moniq, race day 2, treated days 1 and 2
[2] = horse Moniq, race day 2, treated days 1 and 2, day 1 value 4.4
[3] = horse Moniq, race day 3, treated days 1 and 2
[4] = horse Moniq, race day 3, treated days 1 and 2, day 1 value 4.4
[5] = horse Pauli, race day 2, pre-treated before race

## O=[O+][O-] [ozone]
[1]
  PCT: 0.07%
  RBC = red blood cell count: 9.21e+12 L⁻¹
  WBC = white blood cell count: 9.56e+09 L⁻¹
  RDWc: 22.2%
  PDW: 37.2
  TBIL = total biliruben: 58 µmol/L
  TP = total protein: 75 gram/liter
  PLT = platelets: 1.24e+11 L⁻¹
Horse Moniq, race day 2, treated days 1 and 2, day 1 value 0.57
  MON = monocytes: 6e+07 L⁻¹
Horse Moniq, race day 2, treated days 1 and 2, day 1 value 1.80
  LYM = lymphocytes: 1.96e+09 L⁻¹
Horse Moniq, race day 2, treated days 1 and 2, day 1 value 2.98
  CA++ = calcium: 2.98 mmol/L
[2]
  K+ = potassium: 4.3 mmol/L
  MON % = monocytes percentage: 0.6%
Horse Moniq, race day 2, treated days 1 and 2, day 1 value 4.7
  GLU = glucose: 6.1 mmol/L
Horse Moniq, race day 2, treated days 1 and 2, day 1 value 8
  BUN = blood urea nitrogen: 9 mmol/L
Horse Moniq, race day 2, treated days 1 and 2, day 1 value 10.5
  GRA = granulocytes: 7.55e+09 L⁻¹
Horse Moniq, race day 2, treated days 1 and 2, day 1 value 12
  GGT = gamma glutamiel transferase: 11 Units/liter
Horse Moniq, race day 2, treated days 1 and 2, day 1 value 14.0
  LY % = lymphocytes percentage: 20.5%
Horse Moniq, race day 2, treated days 1 and 2, day 1 value 15.1
  MCH = mean corpuscular hemoglobin: 14.7 pg
Horse Moniq, race day 2, treated days 1 and 2, day 1 value 15.5
  HB = hemoglobin: 13.6 d/deciliter
Horse Moniq, race day 2, treated days 1 and 2, day 1 value 36
  ALB = albumin: 34 gram/liter
Horse Moniq, race day 2, treated days 1 and 2, day 1 value 38
  MCV = mean corpuscular volume: 37 femtoliter
Horse Moniq, race day 2, treated days 1 and 2, day 1 value 40.0
  MCHC = mean corpuscular hemoglobin concentration: 39.6 gram/deciliter
Horse Moniq, race day 2, treated days 1 and 2, day 1 value 43
  GLOB = globulin: 40 gram/liter
Horse Moniq, race day 2, treated days 1 and 2, day 1 value 81.6
  GR % = granulocytes percentage: 78.9%
Horse Moniq, race day 2, treated days 1 and 2, day 1 value 96
  CRE = creatinine: 106 µmol/L
Horse Moniq, race day 2, treated days 1 and 2, day 1 value 139
  Na+ = sodium: 137 mmol/L
Horse Moniq, race day 2, treated days 1 and 2, day 1 value 468
  AST = aspertate amino transferase: 564 Units/liter
Horse Moniq, race day 2, treated days 1 and 2, day 1 value 3873
  CK = creatine kinase: 706 International Units/liter
[3]
  PCT: 0.07%
  RBC = red blood cell count: 9.21e+12 L⁻¹
  WBC = white blood cell count: 9.56e+09 L⁻¹
  RDWc: 22.2%
  PDW: 37.2
  TBIL = total biliruben: 58 µmol/L
  TP = total protein: 75 gram/liter
  PLT = platelets: 1.27e+11 L⁻¹
Horse Moniq, race day 3, treated days 1 and 2, day 1 value 0.57
  MON = monocytes: 6e+07 L⁻¹
Horse Moniq, race day 3, treated days 1 and 2, day 1 value 1.80
  LYM = lymphocytes: 1.06e+09 L⁻¹
Horse Moniq, race day 3, treated days 1 and 2, day 1 value 2.98
  CA++ = calcium: 2.98 mmol/L
[4]
  K+ = potassium: 4.3 mmol/L
  MON % = monocytes percentage: 0.6%
Horse Moniq, race day 3, treated days 1 and 2, day 1 value 4.7
  GLU = glucose: 6.1 mmol/L
Horse Moniq, race day 3, treated days 1 and 2, day 1 value 8
  BUN = blood urea nitrogen: 9 mmol/L
Horse Moniq, race day 3, treated days 1 and 2, day 1 value 10.5
  GRA = granulocytes: 7.55e+09 L⁻¹
Horse Moniq, race day 3, treated days 1 and 2, day 1 value 12
  GGT = gamma glutamiel transferase: 11 Units/liter
Horse Moniq, race day 3, treated days 1 and 2, day 1 value 14.0
  LY % = lymphocytes percentage: 20.5%
Horse Moniq, race day 3, treated days 1 and 2, day 1 value 15.1
  MCH = mean corpuscular hemoglobin: 14.7 pg
Horse Moniq, race day 3, treated days 1 and 2, day 1 value 15.5
  HB = hemoglobin: 17.0 d/deciliter
Horse Moniq, race day 3, treated days 1 and 2, day 1 value 36
  ALB = albumin: 34 gram/liter
Horse Moniq, race day 3, treated days 1 and 2, day 1 value 38
  MCV = mean corpuscular volume: 37 femtoliter
Horse Moniq, race day 3, treated days 1 and 2, day 1 value 40.0
  MCHC = mean corpuscular hemoglobin concentration: 39.6 gram/deciliter
Horse Moniq, race day 3, treated days 1 and 2, day 1 value 43
  GLOB = globulin: 40 gram/liter
Horse Moniq, race day 3, treated days 1 and 2, day 1 value 81.6
  GR % = granulocytes percentage: 78.8%
Horse Moniq, race day 3, treated days 1 and 2, day 1 value 96
  CRE = creatinine: 106 µmol/L
Horse Moniq, race day 3, treated days 1 and 2, day 1 value 139
  Na+ = sodium: 137 mmol/L
Horse Moniq, race day 3, treated days 1 and 2, day 1 value 468
  AST = aspertate amino transferase: 564 Units/liter
Horse Moniq, race day 3, treated days 1 and 2, day 1 value 3873
  CK = creatine kinase: 706 International Units/liter
[5]
  ALB = albumin: 32 gram/liter
  AST = aspertate amino transferase: 379 Units/liter
  BUN = blood urea nitrogen: 9 mmol/L
  CA++ = calcium: 3.13 mmol/L
  CK = creatine kinase: 1378 International Units/liter
  CRE = creatinine: 129 µmol/L
  GGT = gamma glutamiel transferase: 19 Units/liter
  GLOB = globulin: 47 gram/liter
  GLU = glucose: *6.9 mmol/liter
  GR % = granulocytes percentage: 88.0%
  GRA = granulocytes: 1.76e+10 L⁻¹
  HB = hemoglobin: 16.6 d/deciliter
  K+ = potassium: 5.1 mmol/L
  LY % = lymphocytes percentage: 7.0%
  LYM = lymphocytes: 1.39e+09 L⁻¹
  MCH = mean corpuscular hemoglobin: 15.8 pg
  MCHC = mean corpuscular hemoglobin concentration: 38.8 gram/deciliter
  MCV = mean corpuscular volume: 41 femtoliter
  MON % = monocytes percentage: 4.0%
  MON = monocytes: 8e+08 L⁻¹
  Na+ = sodium: 143 mmol/L
